molecular target: T1, endogenous BCL-xL (Homo sapiens, UniProt Q07817); test: Degradation of endogenous BCL-xL in COR-L105 (ProteinSimple Jess); type: cell-based; settings: COR-L105, 24 h, COR-L105, dose 300 nM, read-out: % BCL-xL vs. Untreated, COR-L105
T1 construct: endogenous in cells; host or cells: COR-L105 (ECACC No. 92031918); NCI-H1650 (ATCC No. CRL-5883)
Procedure, shortened: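 COR-L105 cells (2,000,000/well) treated 24 h at 37 °C with compound at 100–300 nM final, singlet, alongside untreated cells. RIPA lysates normalized by BCA to 1.5 mg/mL, then BCL-xL detected by capillary immunoassay (2–40 kDa Jess) comparing treated with untreated lysates.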

T1 sequence (Q07817 whole entry): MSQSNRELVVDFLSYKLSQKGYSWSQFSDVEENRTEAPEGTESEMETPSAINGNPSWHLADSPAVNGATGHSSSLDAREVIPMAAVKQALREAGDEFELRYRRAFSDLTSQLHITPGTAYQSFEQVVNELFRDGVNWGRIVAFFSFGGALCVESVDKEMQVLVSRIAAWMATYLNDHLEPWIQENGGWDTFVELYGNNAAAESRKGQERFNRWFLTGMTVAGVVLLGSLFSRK

| remaining activity at 0.3 µM | SMILES |
| --- | --- |
| 40% | Cc1ncsc1-c1ccc(CNC(=O)[C@@H]2CC(O)CN2C(=O)C(NC(=O)CCCCCCC(=O)N2CCN(CCOC34CC5(C)CC(C)(CC(Cn6ncc(-c7ccc(N8CCCc9c8nnc(Nc8nc%10ccccc%10s8)c9C)nc7C(=O)O)c6C)(C5)C3)C4)CC2)C(C)(C)C)cc1 (stereo in doubt) [Example 24, 6-[3-(1,3-benzothiazol-2-ylamino)-4-methyl-6,7-dihydro-5H-pyrido[2,3-c]pyridazin-8-yl]-3-[1-[[3-[2-[4-[8-[[(1S)-1-[(2S,4R)-4-hydroxy-2-[[4-(4-methylthiazol-5-yl)phenyl]methylcarbamoyl]pyrrolidine-1-carbonyl]-2,2-dimethyl-propyl]amino]-8-oxo-octanoyl]piperazin-1-yl]ethoxy]-5,7-dimethyl-1-adamantyl]methyl]-5-methyl-pyrazol-4-yl]pyridine-2-carboxylic acid] |
| 64.8% | Cc1ncsc1-c1ccc(CNC(=O)[C@@H]2C[C@@H](O)CN2C(=O)[C@@H](NC(=O)CCCCCCC(=O)N2CCN(CC#Cc3ccc(OCCCc4sc(N5CCCc6c5nnc(Nc5nc7ccccc7s5)c6C)nc4C(=O)O)c(F)c3)CC2)C(C)(C)C)cc1 [Example 33, 2-(3-(benzo[d]thiazol-2-ylamino)-4-methyl-6,7-dihydropyrido [2,3-c]pyridazin-8(5H)-yl)-5-(3-(2-fluoro-4-(3-(4-(8-(((S)-1-((2S,4R)-4-hydroxy-2-((4-(4-methylthiazol-5-yl)benzyl)carbamoyl)pyrrolidin-1-yl)-3,3-dimethyl-1-oxobutan-2-yl)amino)-8-oxooctanoyl)piperazin-1-yl)prop-1-yn-1-yl)phenoxy)propyl) thiazole-4-carboxylic acid] |
| > 90% | Cc1ncsc1-c1ccc([C@H](C)NC(=O)[C@@H]2C[C@@H](O)CN2C(=O)[C@@H](NC(=O)CCCC(=O)N2CCN(CC#Cc3ccc(OCCCc4sc(N5CCCc6c5nnc(Nc5nc7ccccc7s5)c6C)nc4C(=O)O)c(F)c3)CC2)C(C)(C)C)cc1 [Example 35, 2-(3-(benzo[d]thiazol-2-ylamino)-4-methyl-6,7-dihydropyrido [2,3-c]pyridazin-8(5H)-yl)-5-(3-(2-fluoro-4-(3-(4-(5-(((S)-1-((2S,4R)-4-hydroxy-2-(((S)-1-(4-(4-methylthiazol-5-yl)phenyl)ethyl)carbamoyl)pyrrolidin-1-yl)-3,3-dimethyl-1-oxobutan-2-yl)amino)-5-oxopentanoyl)piperazin-1-yl)prop-1-yn-1-yl)phenoxy)propyl)thiazole-4-carboxylic acid] |
| 33.3% | Cc1ncsc1-c1ccc([C@H](C)NC(=O)[C@@H]2C[C@@H](O)CN2C(=O)[C@@H](NC(=O)CC23CC4CC(C2)CC(CC(=O)N2CCN(CC#Cc5ccc(OCCCc6sc(N7CCCc8c7nnc(Nc7nc9ccccc9s7)c8C)nc6C(=O)O)c(F)c5)CC2)(C4)C3)C(C)(C)C)cc1 [Example 42, 2-(3-(benzo[d]thiazol-2-ylamino)-4-methyl-6,7-dihydropyrido [2,3-c]pyridazin-8(5H)-yl)-5-(3-(2-fluoro-4-(3-(4-(2-((3S,5R)-3-(2-(((S)-1-((2S,4R)-4-hydroxy-2-(((S)-1-(4-(4-methylthiazol-5-yl)phenyl)ethyl)carbamoyl)pyrrolidin-1-yl)-3,3-dimethyl-1-oxobutan-2-yl)amino)-2-oxoethyl)adamantan-1-yl)acetyl)piperazin-1-yl)prop-1-yn-1-yl)phenoxy)propyl)thiazole-4-carboxylic acid] |
| 22.3% | Cc1ncsc1-c1ccc([C@H](C)NC(=O)[C@@H]2C[C@@H](O)CN2C(=O)[C@@H](NC(=O)CCCCCCCCCCC(=O)N2CCN(CCOC34CC5(C)CC(C)(CC(Cn6ncc(-c7ccc(N8CCCc9c8nnc(Nc8nc%10ccccc%10s8)c9C)nc7C(=O)O)c6C)(C5)C3)C4)CC2)C(C)(C)C)cc1 [Example 47, 6-(3-(benzo[d]thiazol-2-ylamino)-4-methyl-6,7-dihydropyrido [2,3-c]pyridazin-8(5H)-yl)-3-(1-(((1r,3s,5R,7S)-3-(2-(4-(12-(((S)-1-((2S,4R)-4-hydroxy-2-(((S)-1-(4-(4-methylthiazol-5-yl)phenyl)ethyl)carbamoyl)pyrrolidin-1-yl)-3,3-dimethyl-1-oxobutan-2-yl)amino)-12-oxododecanoyl)piperazin-1-yl)ethoxy)-5,7-dimethyladamantan-1-yl)methyl)-5-methyl-1H-pyrazol-4-yl)picolinic acid] |

test system: MOLT-4 cells; test: MOLT-4 cell viability, CTG assay; type: cell-based; settings: Homo sapiens, MOLT-4, 48 h
Procedure, shortened: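 Viability read as total ATP luminescence (CTG) after 48 h compound treatment, 11 points at 5-fold spacing in triplicate, cells in RPMI 1640/10% FBS. IC50 is the concentration halving signal relative to control, four-parameter fit, averaged over at least 2 experiments.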

| IC50 | SMILES |
| --- | --- |
| 22.6 nM | Cc1ncsc1-c1ccc(CNC(=O)C2C[C@@H](O)CN2C(=O)C(NC(=O)CCCCCC(=O)N2CCN(CC#Cc3ccc(OCCCc4sc(N5CCCc6c5nnc(Nc5nc7ccccc7s5)c6C)nc4C(=O)O)c(F)c3)CC2)C(C)(C)C)cc1 (stereo in doubt) [Example 15, 2-[3-(1,3-benzothiazol-2-ylamino)-4-methyl-6,7-dihydro-5H-pyrido[2,3-c]pyridazin-8-yl]-5-[3-[2-fluoro-4-[3-[4-[7-[[(1S)-1-[(2S,4R)-4-hydroxy-2-[[4-(4-methylthiazol-5-yl)phenyl]methylcarbamoyl]pyrrolidine-1-carbonyl]-2,2-dimethyl-propyl]amino]-7-oxo-heptanoyl]piperazin-1-yl]prop-1-ynyl]phenoxy]propyl] thiazole-4-carboxylic acid] |
| 7 nM | Cc1ncsc1-c1ccc([C@H](C)NC(=O)C2CC(O)CN2C(=O)C(NC(=O)CCCCCCCCCCCN2CCN(CC#Cc3ccc(OCCCc4sc(N5CCCc6c5nnc(Nc5nc7ccccc7s5)c6C)nc4C(=O)O)c(F)c3)CC2)C(C)(C)C)cc1 (stereo in doubt) [Example 31, 2-[3-(1,3-benzothiazol-2-ylamino)-4-methyl-6,7-dihydro-5H-pyrido[2,3-c]pyridazin-8-yl]-5-[3-[2-fluoro-4-[3-[4-[12-[[(1S)-1-[(2S,4R)-4-hydroxy-2-[[(1S)-1-[4-(4-methylthiazol-5-yl)phenyl]ethyl]carbamoyl]pyrrolidine-1-carbonyl]-2,2-dimethyl-propyl]amino]-12-oxo-dodecyl]piperazin-1-yl]prop-1-ynyl]phenoxy]propyl] thiazole-4-carboxylic acid] |
| 3.41 nM | Cc1ncsc1-c1ccc([C@H](C)NC(=O)[C@@H]2C[C@@H](O)CN2C(=O)[C@@H](NC(=O)CCCCCCCCCCCCCCCN(C)CCOC23CC4(C)CC(C)(CC(Cn5ncc(-c6ccc(N7CCCc8c7nnc(Nc7nc9ccccc9s7)c8C)nc6C(=O)O)c5C)(C4)C2)C3)C(C)(C)C)cc1 [Example 1, 6-[3-(1,3-benzothiazol-2-ylamino)-4-methyl-6,7-dihydro-5H-pyrido[2,3-c]pyridazin-8-yl]-3-[1-[[3-[2-[[16-[[(1S)-1-[(2S,4R)-4-hydroxy-2-[[(1S)-1-[4-(4-methylthiazol-5-yl)phenyl]ethyl]carbamoyl]pyrrolidine-1-carbonyl]-2,2-dimethyl-propyl]amino]-16-oxo-hexadecyl]-methyl-amino]ethoxy]-5,7-dimethyl-1-adamantyl]methyl]-5-methyl-pyrazol-4-yl]pyridine-2-carboxylic acid] |
| 15.8 nM | Cc1ncsc1-c1ccc([C@H](C)NC(=O)[C@@H]2C[C@@H](O)CN2C(=O)[C@@H](NC(=O)CCCCCCCCN(C)CCOC23CC4(C)CC(C)(CC(Cn5ncc(-c6ccc(N7CCCc8c7nnc(Nc7nc9ccccc9s7)c8C)nc6C(=O)O)c5C)(C4)C2)C3)C(C)(C)C)cc1 [Example 5, 6-[3-(1,3-benzothiazol-2-ylamino)-4-methyl-6,7-dihydro-5H-pyrido[2,3-c]pyridazin-8-yl]-3-[1-[[3-[2-[[9-[[(1S)-1-[(2S,4R)-4-hydroxy-2-[[(1S)-1-[4-(4-methylthiazol-5-yl)phenyl]ethyl]carbamoyl]pyrrolidine-1-carbonyl]-2,2-dimethyl-propyl]amino]-9-oxo-nonyl]-methyl-amino]ethoxy]-5,7-dimethyl-1-adamantyl]methyl]-5-methyl-pyrazol-4-yl]pyridine-2-carboxylic acid] |
| 28.7 nM | Cc1ncsc1-c1ccc([C@H](C)NC(=O)[C@@H]2C[C@@H](O)CN2C(=O)[C@@H](NC(=O)CCCCCCCN(C)CCOC23CC4(C)CC(C)(CC(Cn5ncc(-c6ccc(N7CCCc8c7nnc(Nc7nc9ccccc9s7)c8C)nc6C(=O)O)c5C)(C4)C2)C3)C(C)(C)C)cc1 [Example 6, 6-[3-(1,3-benzothiazol-2-ylamino)-4-methyl-6,7-dihydro-5H-pyrido[2,3-c]pyridazin-8-yl]-3-[1-[[3-[2-[[8-[[(1S)-1-[(2S,4R)-4-hydroxy-2-[[(1S)-1-[4-(4-methylthiazol-5-yl)phenyl]ethyl]carbamoyl]pyrrolidine-1-carbonyl]-2,2-dimethyl-propyl]amino]-8-oxo-octyl]-methyl-amino]ethoxy]-5,7-dimethyl-1-adamantyl]methyl]-5-methyl-pyrazol-4-yl]pyridine-2-carboxylic acid] |

Source: patent publication US20240376094A2, “SELECTIVE BCL-XL PROTAC COMPOUNDS AND METHODS OF USE” (Les Laboratoires Servier, priority 2021, published 2024)
